According to patent publication US9579314B2 (priority 2015, dated 2017):

Tests used:
Human β2 adrenoceptor = Human β2 adrenoceptor (Homo sapiens, UniProt P07550); conditions: read-out: B2 binding affinity
Human M3 receptor = Human M3 receptor (Homo sapiens, UniProt P20309); conditions: read-out: M3 binding affinity
Chain of Human M3 receptor (P20309 whole entry): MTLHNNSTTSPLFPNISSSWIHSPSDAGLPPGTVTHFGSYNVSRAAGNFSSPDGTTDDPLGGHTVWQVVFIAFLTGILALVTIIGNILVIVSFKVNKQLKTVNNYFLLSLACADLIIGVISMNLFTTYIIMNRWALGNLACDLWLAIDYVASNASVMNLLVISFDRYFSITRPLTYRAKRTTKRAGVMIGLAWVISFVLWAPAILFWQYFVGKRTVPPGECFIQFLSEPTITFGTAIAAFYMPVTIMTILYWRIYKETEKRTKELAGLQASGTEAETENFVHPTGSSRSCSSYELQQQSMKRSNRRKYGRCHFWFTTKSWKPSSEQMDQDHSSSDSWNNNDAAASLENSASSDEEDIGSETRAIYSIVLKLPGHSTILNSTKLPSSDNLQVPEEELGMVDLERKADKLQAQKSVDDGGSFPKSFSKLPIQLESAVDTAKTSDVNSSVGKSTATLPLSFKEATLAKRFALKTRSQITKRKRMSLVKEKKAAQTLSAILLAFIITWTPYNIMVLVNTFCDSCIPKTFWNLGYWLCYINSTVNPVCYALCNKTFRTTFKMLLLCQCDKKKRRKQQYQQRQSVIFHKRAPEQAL

Chain of Human β2 adrenoceptor (P07550 whole entry): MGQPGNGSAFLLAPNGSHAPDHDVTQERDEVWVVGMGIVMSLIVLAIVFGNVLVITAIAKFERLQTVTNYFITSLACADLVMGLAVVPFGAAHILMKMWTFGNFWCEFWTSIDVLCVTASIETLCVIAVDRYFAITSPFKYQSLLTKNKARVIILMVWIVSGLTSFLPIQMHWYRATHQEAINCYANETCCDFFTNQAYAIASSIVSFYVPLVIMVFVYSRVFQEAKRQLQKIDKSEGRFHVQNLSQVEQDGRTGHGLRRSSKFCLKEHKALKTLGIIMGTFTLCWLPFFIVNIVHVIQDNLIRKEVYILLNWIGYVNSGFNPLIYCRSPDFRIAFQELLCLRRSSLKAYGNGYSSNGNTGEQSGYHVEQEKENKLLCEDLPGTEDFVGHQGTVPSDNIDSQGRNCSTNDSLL

SMILES | IC50 (Human β2 adrenoceptor) [nM] | IC50 (Human M3 receptor) [nM]
O=C(NCCCOc1cccc([C@](O)(C(=O)OCC2CCN(Cc3ccccc3)CC2)c2ccccc2)c1)c1ccc(CNC[C@H](O)c2ccc(O)c3[nH]c(=O)ccc23)c(OC(F)(F)F)c1 [Compound 32E, (S)-(1-benzylpiperidin-4-yl)methyl 2-hydroxy-2-(3-(3-(4-((((R)-2-hydroxy-2-(8-hydroxy-2-oxo-1,2-dihydroquinolin-5-yl)ethyl)amino)methyl)-3-(trifluoromethoxy)benzamido)propoxy)phenyl)-2-phenylacetate] | 0.3 to 3 | 0.3 to 3
COc1c(CNC[C@H](O)c2ccc(O)c3[nH]c(=O)ccc23)ccc(C(=O)NCCCOc2cccc([C@](O)(C(=O)OCC3CCN(Cc4ccccc4)CC3)c3ccccc3)c2)c1F [Compound 32F, (S)-(1-benzylpiperidin-4-yl)methyl 2-(3-(3-(2-fluoro-4-((((R)-2-hydroxy-2-(8-hydroxy-2-oxo-1,2-dihydroquinolin-5-yl)ethyl)amino)methyl)-3-methoxybenzamido)propoxy)phenyl)-2-hydroxy-2-phenylacetate] | < 0.3 | 0.3 to 3
CC(C)Oc1cc(C(=O)NCCCOc2cccc([C@](O)(C(=O)OCC3CCN(Cc4ccccc4)CC3)c3ccccc3)c2)ccc1CNC[C@H](O)c1ccc(O)c2[nH]c(=O)ccc12 [Compound 32G, (S)-(1-benzylpiperidin-4-yl)methyl 2-hydroxy-2-(3-(3-(4-((((R)-2-hydroxy-2-(8-hydroxy-2-oxo-1,2-dihydroquinolin-5-yl)ethyl)amino)methyl)-3-isopropoxybenzamido)propoxy)phenyl)-2-phenylacetate] | 0.3 to 3 | 0.3 to 3
O=C(NCCCOc1cccc([C@](O)(C(=O)OCC2CCN(Cc3ccccc3)CC2)c2ccccc2)c1)c1ccc(CNC[C@H](O)c2ccc(O)c3[nH]c(=O)ccc23)cc1Cl [Compound 32H, (S)-(1-benzylpiperidin-4-yl)methyl 2-(3-(3-(2-chloro-4-((((R)-2-hydroxy-2-(8-hydroxy-2-oxo-1,2-dihydroquinolin-5-yl)ethyl)amino)methyl)benzamido)propoxy)phenyl)-2-hydroxy-2-phenylacetate] | < 0.3 | 0.3 to 3
COc1cc(C(=O)NCCCOc2cccc([C@](O)(C(=O)OCC3CCN(Cc4ccccc4)CC3)c3ccccc3)c2)c(F)cc1CNC[C@H](O)c1ccc(O)c2[nH]c(=O)ccc12 [Compound 32I, (S)-(1-benzylpiperidin-4-yl)methyl 2-(3-(3-(2-fluoro-4-((((R)-2-hydroxy-2-(8-hydroxy-2-oxo-1,2-dihydroquinolin-5-yl)ethyl)amino)methyl)-5-methoxybenzamido)propoxy)phenyl)-2-hydroxy-2-phenylacetate] | < 0.3 | < 0.3
COc1cc(C(=O)NCCCOc2cccc([C@](O)(C(=O)OCC3CCN(Cc4ccccc4)CC3)c3ccccc3)c2)c(Cl)cc1CNC[C@H](O)c1ccc(O)c2[nH]c(=O)ccc12 [Compound 32J, (S)-(1-benzylpiperidin-4-yl)methyl 2-(3-(3-(2-chloro-4-((((R)-2-hydroxy-2-(8-hydroxy-2-oxo-1,2-dihydroquinolin-5-yl)ethyl)amino)methyl)-5-methoxybenzamido)propoxy)phenyl)-2-hydroxy-2-phenylacetate] | < 0.3 | 0.3 to 3
O=C(NCCCOc1cccc([C@](O)(C(=O)OCC2CCN(Cc3ccccc3)CC2)c2ccccc2)c1)c1ccc(CNC[C@H](O)c2ccc(O)c3[nH]c(=O)ccc23)cn1 [Compound 32K, (S)-(1-benzylpiperidin-4-yl)methyl 2-hydroxy-2-(3-(3-(5-((((R)-2-hydroxy-2-(8-hydroxy-2-oxo-1,2-dihydroquinolin-5-yl)ethyl)amino)methyl)picolinamido)propoxy)phenyl)-2-phenylacetate] | < 0.3 | 0.3 to 3
O=C(NCCCOc1cccc([C@](O)(C(=O)OCC2CCN(Cc3ccccc3)CC2)c2ccccc2)c1)c1ccc(CNC[C@H](O)c2ccc(O)c3[nH]c(=O)ccc23)c(F)c1F [Compound 32L, (S)-(1-benzylpiperidin-4-yl)methyl 2-(3-(3-(2,3-difluoro-4-((((R)-2-hydroxy-2-(8-hydroxy-2-oxo-1,2-dihydroquinolin-5-yl)ethyl)amino)methyl)benzamido)propoxy)phenyl)-2-hydroxy-2-phenylacetate] | > 3 | 0.3 to 3
O=C(NCCCOc1cccc([C@](O)(C(=O)OCC2CCN(Cc3ccccc3)CC2)c2ccccc2)c1)c1ccc(CNC[C@H](O)c2ccc(O)c3[nH]c(=O)ccc23)c(C(F)(F)F)c1 [Compound 32M, (S)-(1-benzylpiperidin-4-yl)methyl (S)-2-hydroxy-2-(3-(3-(4-((((R)-2-hydroxy-2-(8-hydroxy-2-oxo-1,2-dihydroquinolin-5-yl)ethyl)amino)methyl)-3-(trifluoromethyl)benzamido)propoxy)phenyl)-2-phenylacetate] | > 3 | 0.3 to 3
O=C(c1ccc(COc2cccc([C@](O)(C(=O)OCC3CCN(Cc4ccccc4)CC3)c3ccccc3)c2)cc1)N1CCC(CNC[C@H](O)c2ccc(O)c3[nH]c(=O)ccc23)CC1 [Compound 33, (S)-(1-benzylpiperidin-4-yl)methyl 2-hydroxy-2-(3-((4-(4-((((R)-2-hydroxy-2-(8-hydroxy-2-oxo-1,2-dihydroquinolin-5-yl)ethyl)amino)methyl)-piperidine-1-carbonyl)benzyl)oxy)phenyl)-2-phenylacetate] | < 0.3 | < 0.3
O=C1C=Cc2c([C@@H](O)CNCCC3CCN(C(=O)c4ccc(COc5cccc([C@](O)(C(=O)OCC6CCN(Cc7ccccc7)CC6)c6ccccc6)c5)cc4)CC3)ccc(O)c2C1 [Compound 33A, (1-benzylpiperidin-4-yl)methyl (S)-2-hydroxy-2-(3-((4-(4-(2-(((R)-2-hydroxy-2-(4-hydroxy-6-oxo-5,6-dihydronaphthalen-1-yl)ethyl)amino)ethyl)piperidine-1-carbonyl)benzyl)oxy)phenyl)-2-phenylacetate] | < 0.3 | 0.3 to 3
O=C(NCCOc1cccc([C@@](O)(C(=O)OCC2CCN(Cc3ccccc3)CC2)c2ccccc2)c1)c1ccc(CCNC[C@H](O)c2ccc(O)c3[nH]c(=O)ccc23)cc1 [Compound 34, (R)-(1-benzylpiperidin-4-yl)methyl 2-hydroxy-2-(3-(2-(4-(2-(((R)-2-hydroxy-2-(8-hydroxy-2-oxo-1,2-dihydroquinolin-5-yl)ethyl)amino)ethyl)benzamido)ethoxy)phenyl)-2-phenylacetate] | 0.3 to 3 | > 3
O=C(c1cccc(COc2cccc([C@](O)(C(=O)OCC3CCN(Cc4ccccc4)CC3)c3ccccc3)c2)c1)N1CCC(CNC[C@H](O)c2ccc(O)c3[nH]c(=O)ccc23)CC1 [Compound 35, (S)-(1-benzylpiperidin-4-yl)methyl 2-hydroxy-2-(3-((3-(4-((((R)-2-hydroxy-2-(8-hydroxy-2-oxo-1,2-dihydroquinolin-5-yl)ethyl)amino)methyl)-piperidine-1-carbonyl)benzyl)oxy)phenyl)-2-phenylacetate] | < 0.3 | < 0.3
O=C(COc1cccc([C@](O)(C(=O)OCC2CCN(Cc3ccccc3)CC2)c2ccccc2)c1)N1CCC(CNC[C@H](O)c2ccc(O)c3[nH]c(=O)ccc23)CC1 [Compound 36, (S)-(1-benzylpiperidin-4-yl)methyl 2-hydroxy-2-(3-(2-(4-((((R)-2-hydroxy-2-(8-hydroxy-2-oxo-1,2-dihydroquinolin-5-yl)ethyl)amino)methyl)piperidin-1-yl)-2-oxoethoxy)phenyl)-2-phenylacetate] | < 0.3 | < 0.3
O=C(COc1cccc([C@](O)(C(=O)OCC2CCN(Cc3ccccc3)CC2)c2ccccc2)c1)N1CCC(CCNC[C@H](O)c2ccc(O)c3[nH]c(=O)ccc23)CC1 [Compound 36A, (1-benzylpiperidin-4-yl)methyl (S)-2-hydroxy-2-(3-(2-(4-(2-(((R)-2-hydroxy-2-(8-hydroxy-2-oxo-1,2-dihydroquinolin-5-yl)ethyl)amino)ethyl)piperidin-1-yl)-2-oxoethoxy)phenyl)-2-phenylacetate] | 0.3 to 3 | 0.3 to 3
O=C(NCCCOc1cccc([C@](O)(C(=O)OCC2CCN(Cc3ccccc3)CC2)c2ccccc2)c1)c1ccc(CCNC[C@H](O)c2ccc(O)c3[nH]c(=O)ccc23)cc1 [Compound 37, (S)-(1-benzylpiperidin-4-yl)methyl 2-hydroxy-2-(3-(3-(4-(2-(((R)-2-hydroxy-2-(8-hydroxy-2-oxo-1,2-dihydroquinolin-5-yl)ethyl)amino)ethyl)benzamido)propoxy)phenyl)-2-phenylacetate] | < 0.3 | < 0.3
O=C(NCCOc1cccc([C@](O)(C(=O)OCC2CCN(Cc3ccccc3)CC2)c2ccccc2)c1)c1ccc(CCNC[C@H](O)c2ccc(O)c3[nH]c(=O)ccc23)cc1 [Compound 38, (S)-(1-benzylpiperidin-4-yl)methyl 2-hydroxy-2-(3-(2-(4-(2-(((R)-2-hydroxy-2-(8-hydroxy-2-oxo-1,2-dihydroquinolin-5-yl)ethyl)amino)ethyl)benzamido)ethoxy)phenyl)-2-phenylacetate] | < 0.3 | < 0.3
O=C(NCCc1cccc(C(O)(C(=O)OCC2CCN(Cc3ccccc3)CC2)c2ccccc2)c1)c1ccc(CCNC[C@H](O)c2ccc(O)c3[nH]c(=O)ccc23)cc1 (stereo partly drawn) [Compound 40, (1-benzylpiperidin-4-yl)methyl 2-hydroxy-2-(3-(2-(4-(2-(((R)-2-hydroxy-2-(8-hydroxy-2-oxo-1,2-dihydroquinolin-5-yl)ethyl)amino)ethyl)benzamido)ethyl)phenyl)-2-phenylacetate] | 0.3 to 3 | 0.3 to 3
O=C(c1ccc(CNC[C@H](O)c2ccc(O)c3[nH]c(=O)ccc23)cc1)N1CC(COc2cccc([C@](O)(C(=O)OCC3CCN(Cc4ccccc4)CC3)c3ccccc3)c2)C1 [Compound 41, (S)-(1-benzylpiperidin-4-yl)methyl 2-hydroxy-2-(3-((1-(4-((((R)-2-hydroxy-2-(8-hydroxy-2-oxo-1,2-dihydroquinolin-5-yl)ethyl)amino)methyl)-benzoyl)azetidin-3-yl)methoxy)phenyl)-2-phenylacetate] | 0.3 to 3 | 0.3 to 3
